The values that follow come from ChEMBL document CHEMBL5390215, “SARS-CoV-2 papain-like protease (PLpro) inhibitory and antiviral activity of small molecule derivatives for drug leads” (Bioorg Med Chem Lett, 2023).

The target of test [1] is Replicase polyprotein 1ab (Severe acute respiratory syndrome-related coronavirus, UniProt P0C6X7). Nature of the test: Inhibition of SARS-CoV-1 papain-like protease.
Test [2] addresses Replicase polyprotein 1ab (Severe acute respiratory syndrome coronavirus 2, UniProt P0DTD1). Nature of the test: Inhibition of SARS-CoV-2 papain-like protease.
The subject of the next test is SARS-CoV-2. Nature of the test: Antiviral activity against SARS-CoV-2 infected Chlorocebus sabaeus Vero E6 cells assessed as inhibition of viral replication. It counts as functional. The conditions noted are these: Severe acute respiratory syndrome coronavirus 2, Vero C1008; read-out: ID50 (the source's name).
For a further test, the system named is SARS-CoV. Nature of the test: Antiviral activity against SARS-CoV-1 infected Chlorocebus sabaeus Vero E6 cells assessed as inhibition of viral replication. It counts as functional. To be noted: Severe acute respiratory syndrome-related coronavirus, Vero C1008; read-out: ID50 (the source's name).

Some results are limits rather than exact numbers.

With `COc1ccc(CNC(=O)C2CCN([C@H](C)c3cccc4ccccc34)CC2)cc1`, the IC50 turned out to be 0.56 µM in test [1], 0.92 µM in test [2], 17 µM in the test on SARS-CoV-2 and 10.2 µM in the test on SARS-CoV.
On to `COc1cccc(CNC(=O)C2CCN([C@H](C)c3ccc4ccccc4c3)CC2)c1`, for which the values for the IC50 (in test [1]; with SARS-CoV-2) were 13.2 µM and 27 µM, respectively.
Regarding `CCCN(CCC)C(=O)c1ccc(C)c(C(=O)N[C@H](C)c2cccc3ccccc23)c1`, the IC50 (in test [2]; with SARS-CoV-2) was over 100 µM each time.
On to `C[C@@H](NS(=O)(=O)c1ccc([N+](=O)[O-])cc1)c1cccc2ccccc12`, for which the IC50 in test [2] stood at 6.3 µM; in the test with SARS-CoV-2, 56 µM.
Regarding `C[C@@H](NC(=O)[C@@H](Cc1c[nH]c2ccccc12)NC(=O)OC(C)(C)C)c1cccc2ccccc12`, the IC50 in test [2] is over 100 µM; in the test with SARS-CoV-2, 36 µM.
`C[C@@H](NC(=O)[C@H](N)Cc1ccccc1)c1cccc2ccccc12`: the IC50 was over 100 µM in test [2] and 76 µM in the test on SARS-CoV-2.
Consider `COc1ccc(C(=O)N[C@H](C)c2cccc3ccccc23)cc1N`, for which the IC50 in test [2] was 35.2 µM; in the test with SARS-CoV-2 it was over 100 µM.
The like results for `C[C@@H](NC(=O)[C@H](NC(=O)OC(C)(C)C)c1ccccc1)c1cccc2ccccc12` were, in that order, 13.3 µM and over 100 µM.
The like results for `C[C@@H](NS(=O)(=O)c1cccc([N+](=O)[O-])c1)c1cccc2ccccc12` were, in that order, 15.5 µM and 38 µM.
For `C[C@@H](NC(=O)[C@@H](NC(=O)OC(C)(C)C)c1ccccc1)c1cccc2ccccc12`, the IC50 in test [2] is 13.2 µM; with SARS-CoV-2, over 100 µM.
In the same order, the values of `C[C@@H](NC(=O)[C@@H](Cc1ccccc1)NC(=O)OC(C)(C)C)c1cccc2ccccc12` are over 100 µM and 38 µM.
The like results for `C[C@@H](NS(=O)(=O)c1ccc(N)cc1)c1cccc2ccccc12` were, in that order, over 100 µM and over 100 µM.
The like results for `Cc1ccc(C(=O)NC(C)C)cc1C(=O)N[C@H](C)c1cccc2ccccc12` were, in that order, over 100 µM and over 100 µM.
For `CCCN(CCC)C(=O)c1cccc(C(=O)N[C@H](C)c2cccc3ccccc23)c1`, the IC50 in test [2] was determined as 15.9 µM; in the test on SARS-CoV-2, 15 µM.
Take `C[C@@H](NS(=O)(=O)c1cccc(N)c1)c1cccc2ccccc12`: the IC50 in the test with SARS-CoV-2 turned out to be 64 µM.
For the compound `C[C@@H](NC(=O)[C@H](N)Cc1c[nH]c2ccccc12)c1cccc2ccccc12`, the IC50 in test [2] is over 100 µM; in the test on SARS-CoV-2, 31 µM.
In the case of `COc1ccc([C@@H](C)NC(=O)c2cc(N)ccc2C)c2ccccc12`, the IC50 was over 100 µM in test [2] and 36 µM in the test on SARS-CoV-2.
In the case of `Cc1ccc(N)cc1C(=O)N[C@H](C)c1cccc2ccccc12`, the IC50 with SARS-CoV-2 was 38 µM.
As to `CNCc1ccc(C)c(C(=O)N[C@H](C)c2cccc3ccccc23)c1`, the IC50 in the test on SARS-CoV-2 turned out to be 20 µM.
Still for that read-out and setting: in the case of `Cc1ccc(CN)cc1C(=O)N[C@H](C)c1cccc2ccccc12` it was 24 µM.
